Our source for the Ki values is patent publication US10093683B2, “Factor XIa inhibitors” (Merck Sharp & Dohme Corp., priority 2014, dated 2018).

Where two headings read alike, the source gives them in different places.

The target in this assay is human Factor XIa (Homo sapiens (Human), UniProt P03951). The experiment in a line: Factor XIa Assay. Format: biochemical. The following applies: read-out: FXIa Ki. In outline: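 Purified human FXIa (40 pM final) hydrolysing fluorogenic Z-Gly-Pro-Arg-AFC (100 μM) in 50 mM HEPES pH 7.4, 150 mM NaCl, 5 mM CaCl2, 0.1% PEG 8000, at room temperature or 37° C. Initial velocities measured after enzyme–inhibitor equilibration; Ki from Vo/Vi versus [I], assuming competitive inhibition.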
Chain of human Factor XIa (P03951 388-625): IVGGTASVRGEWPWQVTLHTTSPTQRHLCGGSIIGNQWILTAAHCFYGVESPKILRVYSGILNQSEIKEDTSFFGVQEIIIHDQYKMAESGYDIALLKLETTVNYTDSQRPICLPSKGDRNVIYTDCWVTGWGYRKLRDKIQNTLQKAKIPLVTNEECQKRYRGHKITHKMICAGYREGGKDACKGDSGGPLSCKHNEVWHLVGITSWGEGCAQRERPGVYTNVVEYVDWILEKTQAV
Chain of human Factor XIa (P03951 19-387 partner): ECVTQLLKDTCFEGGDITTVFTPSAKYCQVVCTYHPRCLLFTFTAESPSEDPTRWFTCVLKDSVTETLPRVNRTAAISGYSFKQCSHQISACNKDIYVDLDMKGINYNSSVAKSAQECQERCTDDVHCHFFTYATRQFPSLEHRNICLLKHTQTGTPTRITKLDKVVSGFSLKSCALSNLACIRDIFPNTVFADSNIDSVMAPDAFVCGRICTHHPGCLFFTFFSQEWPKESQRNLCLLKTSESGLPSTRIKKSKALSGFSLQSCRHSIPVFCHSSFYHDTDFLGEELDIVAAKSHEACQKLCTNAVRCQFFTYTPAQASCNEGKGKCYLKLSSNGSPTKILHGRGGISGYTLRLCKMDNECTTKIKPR

The mark [1] stands for this setting: purified human Factor XIa 40 pM, Z-Gly-Pro-Arg-AFC 100 μM, pH 7.4.

One may read the Ki as the dissociation constant of the complex between target and ligand, obtained from inhibition or displacement. For `O=C1Nc2ccc(Cl)c(F)c2[C@@]2(CCCN(C(=O)[C@H](Cc3cnccn3)NC(=O)c3ccc4[nH]c(=O)ccc4c3)C2)O1` [Example 114, N-((S)-1-((R)-6-chloro-5-fluoro-2-oxo-1,2-dihydrospiro[benzo[d][1,3]oxazine-4,3′-piperidin]-1′-yl)-1-oxo-3-(pyrazin-2-yl)propan-2-yl)-2-oxo-1,2-dihydroquinoline-6-carboxamide], the Ki under setting [1] was 0.0744 µM.
In the case of `O=C1Nc2ccc(Cl)cc2[C@]2(CCN(C(=O)[C@@H](Cc3ccccc3)C(=O)Nc3ccc(C(=O)O)cc3)C2)O1` [Example 121a, 4-((S)-2-benzyl-3-((S)-6-chloro-2-oxo-1,2-dihydrospiro[benzo[d][1,3]oxazine-4,3′-pyrrolidin]-1′-yl)-3-oxopropanamido)benzoic acid], the Ki under setting [1] is at least 5 µM.
Consider `O=C1Nc2ccc(Cl)cc2[C@]2(CCN(C(=O)[C@H](Cc3ccccc3)C(=O)Nc3ccc(C(=O)O)cc3)C2)O1` [Example 121b, 4-((R)-2-benzyl-3-((S)-6-chloro-2-oxo-1,2-dihydrospiro[benzo[d][1,3]oxazine-4,3′-pyrrolidin]-1′-yl)-3-oxopropanamido)benzoic acid], for which the Ki under setting [1] was at least 5 µM.
On the same count and under the same terms, as for `O=C1Nc2ccc(Cl)cc2[C@@]2(CCN(C(=O)[C@H](Cc3ccccc3)C(=O)Nc3ccc(C(=O)O)cc3)C2)O1` [Example 121c, 4-((R)-2-benzyl-3-((R)-6-chloro-2-oxo-1,2-dihydrospiro[benzo[d][1,3]oxazine-4,3′-pyrrolidin]-1′-yl)-3-oxopropanamido)benzoic acid], the figure is 0.439 µM; as for `O=C1Nc2ccc(Cl)cc2[C@@]2(CCN(C(=O)[C@@H](Cc3ccccc3)C(=O)Nc3ccc(C(=O)O)cc3)C2)O1` [Example 121d, 4-((S)-2-benzyl-3-((R)-6-chloro-2-oxo-1,2-dihydrospiro[benzo[d][1,3]oxazine-4,3′-pyrrolidin]-1′-yl)-3-oxopropanamido)benzoic acid], 3.78 µM; as for `COC(=O)Nc1ccc(-c2c[nH]c([C@@H](Cc3ccccc3)C(=O)N3CC[C@@]4(C3)OC(=O)Nc3ccc(Cl)cc34)n2)cc1` [Example 122a, methyl (4-(2-((R)-1-((R)-6-chloro-2-oxo-1,2-dihydrospiro[benzo[d][1,3]oxazine-4,3′-pyrrolidin]-1′-yl)-1-oxo-3-phenylpropan-2-yl)-1H-imidazol-4-yl)phenyl)carbamate], 0.0336 µM.
As to `COC(=O)Nc1ccc(-c2c[nH]c([C@H](Cc3ccccc3)C(=O)N3CC[C@]4(C3)OC(=O)Nc3ccc(Cl)cc34)n2)cc1` [Example 122b, methyl (4-(2-((S)-1-((S)-6-chloro-2-oxo-1,2-dihydrospiro[benzo[d][1,3]oxazine-4,3′-pyrrolidin]-1′-yl)-1-oxo-3-phenylpropan-2-yl)-1H-imidazol-4-yl)phenyl)carbamate], the Ki under setting [1] turned out to be 4.69 µM.
For the compound `COC(=O)Nc1ccc(-c2c[nH]c([C@@H](Cc3ccccc3)C(=O)N3CC[C@]4(C3)OC(=O)Nc3ccc(Cl)cc34)n2)cc1` [Example 122c, methyl (4-(2-((R)-1-((S)-6-chloro-2-oxo-1,2-dihydrospiro[benzo[d][1,3]oxazine-4,3′-pyrrolidin]-1′-yl)-1-oxo-3-phenylpropan-2-yl)-1H-imidazol-4-yl)phenyl)carbamate], the Ki under setting [1] stood at 5 µM.
Regarding `COC(=O)Nc1ccc(-c2c[nH]c([C@H](Cc3ccccc3)C(=O)N3CC[C@@]4(C3)OC(=O)Nc3ccc(Cl)cc34)n2)cc1` [Example 122d, methyl (4-(2-((S)-1-((R)-6-chloro-2-oxo-1,2-dihydrospiro[benzo[d][1,3]oxazine-4,3′-pyrrolidin]-1′-yl)-1-oxo-3-phenylpropan-2-yl)-1H-imidazol-4-yl)phenyl)carbamate], under setting [1], the Ki was determined as 0.364 µM.
Consider `O=C1Nc2ccc(Cl)c(F)c2[C@@]2(CCCN(C(=O)C(Cc3ccccc3)c3nc(-c4csc(C(=O)O)c4F)c[nH]3)C2)O1` (stereo partly drawn) [Example 124, 4-(2-(1-((R)-6-chloro-5-fluoro-2-oxo-1,2-dihydrospiro[benzo[d][1,3]oxazine-4,3′-piperidin]-1′-yl)-1-oxo-3-phenylpropan-2-yl)-1H-imidazol-4-yl)-3-fluorothiophene-2-carboxylic acid], for which the Ki under setting [1] is 0.209 µM.
For the compound `O=C1Nc2ccc(Cl)cc2[C@@]2(CCCN(C(=O)C(Cc3ccc(F)cc3)c3nc(Cl)c(-c4ccc(F)cc4)[nH]3)C2)O1` (stereo partly drawn) [Example 127, (4R)-6-chloro-1′-(2-(4-chloro-5-(4-fluorophenyl)-1H-imidazol-2-yl)-3-(4-fluorophenyl)propanoyl)spiro[benzo[d][1,3]oxazine-4,3′-piperidin]-2(1H)-one], the Ki under setting [1] worked out at 5 µM.
The same measure, in the same setting: for `O=C1Nc2ccc(Cl)cc2[C@@]2(CCCN(C(=O)C(Cc3ccc(F)cc3)c3nc(Cl)c(-c4ccc(C(=O)O)cc4)[nH]3)C2)O1` (stereo partly drawn) [Example 128, 4-(4-chloro-2-(1-((R)-6-chloro-2-oxo-1,2-dihydrospiro[benzo[d][1,3]oxazine-4,3′-piperidin]-1′-yl)-3-(4-fluorophenyl)-1-oxopropan-2-yl)-1H-imidazol-5-yl)benzoic acid] the value was 8.75 µM; for `COC(=O)Nc1ccc(-c2nnc([C@H](Cc3ccccc3)C(=O)N3CC[C@@]4(C3)OC(=O)Nc3ccc(Cl)c(F)c34)o2)cc1` [Example 129A, methyl (4-(5-((S)-1-((R)-6-chloro-5-fluoro-2-oxo-1,2-dihydrospiro[benzo[d][1,3]oxazine-4,3′-pyrrolidin]-1′-yl)-1-oxo-3-phenylpropan-2-yl)-1,3,4-oxadiazol-2-yl)phenyl)carbamate], above 0.875 µM; for `COC(=O)Nc1ccc(-c2ncc(C(Cc3ccccc3)C(=O)N3CC[C@@]4(C3)OC(=O)Nc3ccc(Cl)c(F)c34)[nH]2)cc1` (stereo partly drawn) [Example 130, methyl (4-(5-(1-((R)-6-chloro-5-fluoro-2-oxo-1,2-dihydrospiro[benzo[d][1,3]oxazine-4,3′-pyrrolidin]-1′-yl)-1-oxo-3-phenylpropan-2-yl)-1H-imidazol-2-yl)phenyl)carbamate], 0.0919 µM.
With `COC(=O)Nc1ccc2[nH]c([C@@H](Cc3ccccc3)C(=O)N3CC[C@@]4(C3)OC(=O)Nc3ccc(Cl)cc34)nc2c1` [Example 131c, methyl (2-((R)-1-((R)-6-chloro-2-oxo-1,2-dihydrospiro[benzo[d][1,3]oxazine-4,3′-pyrrolidin]-1′-yl)-1-oxo-3-phenylpropan-2-yl)-1H-benzo[d]imidazol-5-yl)carbamate], the Ki under setting [1] came to 0.354 µM.
In the case of `COC(=O)Nc1ccc2[nH]c([C@@H](Cc3ccccc3)C(=O)N3CC[C@]4(C3)OC(=O)Nc3ccc(Cl)cc34)nc2c1` [Example 131d, methyl (2-((R)-1-((S)-6-chloro-2-oxo-1,2-dihydrospiro[benzo[d][1,3]oxazine-4,3′-pyrrolidin]-1′-yl)-1-oxo-3-phenylpropan-2-yl)-1H-benzo[d]imidazol-5-yl)carbamate], the Ki under setting [1] turned out to be 5 µM.
Take `O=C1Nc2ccc(Cl)cc2[C@@]2(CCCN(C(=O)C(Cc3ccc(F)cc3)c3nc4ccc(F)cc4[nH]3)C2)O1` (stereo partly drawn) [Example 133, (4R)-6-chloro-1′-(2-(6-fluoro-1H-benzo[d]imidazol-2-yl)-3-(4-fluorophenyl)propanoyl)spiro[benzo[d][1,3]oxazine-4,3′-piperidin]-2(1H)-one]: the Ki under setting [1] was found to be 8.75 µM.
For the compound `COC(=O)Nc1ccc2[nH]c(C(Cc3ccccc3)C(=O)N3CCC[C@@]4(C3)OC(=O)Nc3ccc(Cl)c(F)c34)cc2c1` (stereo partly drawn) [Example 134, methyl (2-(1-((R)-6-chloro-5-fluoro-2-oxo-1,2-dihydrospiro[benzo[d][1,3]oxazine-4,3′-piperidin]-1′-yl)-1-oxo-3-phenylpropan-2-yl)-1H-indol-5-yl)carbamate], under setting [1], the Ki is above 0.875 µM.
As for `O=C1Nc2ccc(Cl)cc2[C@@]2(CCCN(C(=O)C(CC3CC3)Nc3n[nH]c4cc(F)ccc34)C2)O1` (stereo partly drawn) [Example 135, (4R)-6-chloro-1′-(3-cyclopropyl-2-((6-fluoro-1H-indazol-3-yl)amino)propanoyl)spiro[benzo[d][1,3]oxazine-4,3′-piperidin]-2(1H)-one], the Ki under setting [1] was above 8.75 µM.
As to `COC(=O)Nc1ccc2onc(N[C@@H](Cc3ccccc3)C(=O)N3CCC[C@@]4(C3)OC(=O)Nc3ccc(Cl)cc34)c2c1` [Example 138, methyl (3-(((S)-1-((R)-6-chloro-2-oxo-1,2-dihydrospiro[benzo[d][1,3]oxazine-4,3′-piperidin]-1′-yl)-1-oxo-3-phenylpropan-2-yl)amino)benzo[d]isoxazol-5-yl)carbamate], the Ki under setting [1] was determined as 8.75 µM.
As for `NS(=O)(=O)c1ccc(C(=O)N[C@@H](Cc2ccccc2)C(=O)N2CCC3(C2)OC(=O)Nc2ccc(Cl)cc23)cc1` (stereo partly drawn) [Example 139, N-((2S)-1-(6-chloro-2-oxo-1,2-dihydrospiro[benzo[d][1,3]oxazine-4,3′-pyrrolidin]-1′-yl)-1-oxo-3-phenylpropan-2-yl)-4-sulfamoylbenzamide], the Ki was found to be 0.928 µM.
The same measure, in the same setting: as for `O=C1Nc2ccc(Cl)cc2C2(CCN(C(=O)[C@H](Cc3ccccc3)NC(=O)c3ccc4[nH]ncc4c3)C2)O1` (stereo partly drawn) [Example 142], the figure is 0.0484 µM; as for `Cc1nccnc1C(=O)N[C@@H](Cc1ccccc1)C(=O)N1CCC2(C1)OC(=O)Nc1ccc(Cl)cc12` (stereo partly drawn) [Example 145], 3.32 µM; as for `Cc1nc(C(=O)N[C@@H](Cc2ccccc2)C(=O)N2CCC3(C2)OC(=O)Nc2ccc(Cl)cc23)co1` (stereo partly drawn) [Example 146], 5 µM.
Consider `COc1ccc(C(=O)N[C@@H](Cc2ccccc2)C(=O)N2CCC3(C2)OC(=O)Nc2ccc(Cl)cc23)nc1` (stereo partly drawn) [Example 147], for which the Ki stood at 4.03 µM.
Regarding `CS(=O)(=O)c1ccc(C(=O)N[C@@H](Cc2ccccc2)C(=O)N2CCC3(C2)OC(=O)Nc2ccc(Cl)cc23)nc1` (stereo partly drawn) [Example 148], the Ki amounted to 1.87 µM.
On the same count and under the same terms, as for `N#Cc1ccc(C(=O)N[C@@H](Cc2ccccc2)C(=O)N2CCC3(C2)OC(=O)Nc2ccc(Cl)cc23)cc1` (stereo partly drawn) [Example 150, N-((2S)-1-(6-chloro-2-oxo-1,2-dihydrospiro[benzo[d][1,3]oxazine-4,3′-pyrrolidin]-1′-yl)-1-oxo-3-phenylpropan-2-yl)-4-cyanobenzamide], the figure is 0.43 µM.
